From patent publication US11179501B2, “Bone morphogenetic protein pathway activation, compositions for ossification, and methods related thereto” (Emory University, priority 2011, dated 2021)
Counter-ions that a name gives are not always drawn.

Legend:
C2C12 cells [1] = assay: Alkaline phosphatase (ALP) assay: potentiation of BMP-2-induced ALP activity; conditions: C2C12 cells; for cell lifting from culture plates: ALP assay
Procedure: (§1) Their activity was evaluated by determining the potentiation of alkaline phosphatase activity in sub-optimal doses of BMP in the presence or absence of exogenously added noggin.
The BMP-potentiating activities of compounds may be evaluated by monitoring several markers of the osteoblastic phenotype corresponding to various time points during phenotype differentiation of C2C12 cells towards terminally differentiated osteoblasts.
The C2C12 cells at passages 5 to 10 were subcultured in T-75 cm^2 flasks in DMEM supplemented with 10% FBS at 37° C. in 5% CO2 with humidification. When the flasks reached 80% confluence, the cells were trypsinized and seeded in triplicate.
The C2C12 cells were plated at 200,000 cells/well in 6-well plates and grown overnight in DMEM containing 10% FBS. On day 2, the culture medium was replaced with DMEM containing 2% FBS and the cells were treated with various concentrations of compound for 24 hours. On day 3, the culture medium was replaced with DMEM containing 2% FBS and the cells were treated with 50 ng/ml of BMP-2 and various concentrations of compound for 72 hours. The cells were washed with phosphate-buffered saline (PBS) and lysed by addition of lysis buffer (10 mM Tris-HCl pH 8.0, 1 mM MgCl2 and 1.0% Triton X-100). The cell lysates were centrifuged for 5 minutes at 13,000×g. The supernatant was removed and the aliquots were assayed for ALP activity and protein amount. The ALP activity was measured in triplicate using an ALP assay kit (Sigma-Aldrich, St. Louis, Mo.) in microtiter plates. The protein amount was determined with Bio-Rad protein assay reagent (Bio-Rad, Hercules, Calif.) using bovine serum albumin (BSA) as a standard. The ALP activity (nmoles of p-nitrophenol per ml) was normalized to the protein amount (nmoles of p-nitrophenol per μg).

C2C12 cells [2] = assay: BMP-Noggin competitive alkaline phosphatase (ALP) assay; format: cell-based, Mouse; conditions: BMP-Noggin competitive ALP assay, low cell number and low yield of protein
Procedure: as §1
Mouse C2C12 cells and Dulbecco's modified Eagle's medium (DMEM) were purchased from ATCC (Manassas, Va.). The non-heat inactivated fetal bovine serum (FBS) was purchased from HyClone Laboratories, Inc. (Logan, Utah). The C2C12 cells at passages 5 to 10 were subcultured in T-75 cm^2 flasks in DMEM supplemented with 10% FBS at 37° C. in 5% CO2 with humidification. When the flasks reached 80% confluence, the cells were trypsinized and seeded in triplicate.
The C2C12 cells were plated at 200,000 cells/well in 6-well plates and grown overnight in DMEM containing 10% FBS. On day 2, the culture medium was replaced with DMEM containing 2% FBS and the cells were treated with 90-100 ng/ml of BMP-2 (as noted in each experiment), various concentrations of compound, and 100-120 ng/ml of noggin (as noted in each experiment) for 72 hours. The cells were washed with phosphate-buffered saline (PBS) and lysed by addition of lysis buffer (10 mM Tris-HCl pH 8.0, 1 mM MgCl2 and 1.0% Triton X-100). The cell lysates were centrifuged for 5 minutes at 13,000×g. The supernatant was removed and the aliquots were assayed for ALP activity and protein amount. The ALP activity was measured in triplicate using an ALP assay kit (Sigma-Aldrich, St. Louis, Mo.) in microtiter plates. The protein amount was determined with Bio-Rad protein assay reagent (Bio-Rad, Hercules, Calif.) using bovine serum albumin (BSA) as a standard. The ALP activity (nmoles of p-nitrophenol per ml) was normalized to the protein amount (nmoles of p-nitrophenol per μg).

Sprague Dawley rats = assay: Collagen disc implantation with macrolides in rat ectopic model; format: in vivo; set-up: Ave. (Xray score): scale not given here; conditions: for Ave. (Xray score) / Results (bone, animals with bone of 4): 100 ul, collagen, no BMP-2, 4 weeks; for De novo bone formation: local, collagen disc, chest implant, absence of BMP-2, 4 weeks
Excerpt: Sprague Dawley rats about 5-6 weeks of age were chest implanted with a collagen disc (diameter of 1.0 cm and height of 2.0 mm; total volume of 150 cubic millimeters) and doses of macrolides in the absence of BMP-2. After 4 weeks the rats were sacrificed and evaluated for bone growth. […] In certain embodiments, the disclosure contemplates local bone formation for fracture repair, segmental bone defects, spine fusion, bone grafting, and regional bone enhancement for osteopenic bones before they fracture (e.g. hip, vertebral body, etc) by deliver locally to induce local bone formation.

## CCCCC(=O)OCC(=O)[C@]1(O)Cc2c(O)c3c(c(O)c2[C@@H](O[C@H]2C[C@H](NC(=O)C(F)(F)F)[C@H](O)[C@H](C)O2)C1)C(=O)c1c(OC)cccc1C3=O [Valrubicin]
C2C12 cells [1]
  Fold-increase of BMP-induced ALP (over BMP alone control): 3.0

## Nc1nc2ccc(Cl)cc2c2nc(-c3ccco3)nn12 [CGS 15943, 9-chloro-2-(furan-2-yl)[1,2,4]triazolo[1,5-c]quinazolin-5-amine]
C2C12 cells [2]
  cell lifting from culture plates: caused cell lifting from culture plates

## COc1cc(CNC(=O)CCCCC=CC(C)C)ccc1O [Capsaicin, N-(4-hydroxy-3-methoxybenzyl)-8-methylnon-6-enamide]
C2C12 cells [2]
  cell lifting from culture plates: caused cell lifting from culture plates

## COC(=O)Nc1nc2cc(C(=O)c3ccc(F)cc3)ccc2[nH]1 [flubendazole]
C2C12 cells [1]
  cell lifting from culture plates: caused cell lifting from culture plates

## CCN(CC)CCNC(=O)c1c(C)[nH]c(/C=C2\C(=O)Nc3ccc(F)cc32)c1C [Sunitinib]
C2C12 cells [1]
  Fold-increase of BMP-induced ALP (over BMP alone control): 4.0

## O=c1[nH]cc(F)c(=O)[nH]1 [5-fluorouracil]
C2C12 cells [1]
  cell lifting from culture plates: caused cell lifting from culture plates

## COC1CC2CCC(C)C(O)(O2)C(=O)C(=O)N2CCCCC2C(=O)OC(C(C)CC2CCC(O)C(OC)C2)CC(=O)C(C)C=C(C)C(O)C(OC)C(=O)C(C)CC(C)C=CC=CC=C1C (centres unmarked) [Sirolimus, 9,10,12,13,14,21,22,23,24,25,26,27,32,33,34,34a-Hexadecahydro-9,27-dihydroxy-3-[2-[4-hydroxy-3-methoxycyclohexyl]-1-methylethyl]-10,21-dimethoxy-6,8,12,14,20,26-hexamethyl-23,27-epoxy-3H-pyrido[2,1-c][1,4]oxaazacyclohentriacontine-1,5,11,28,29(4H,6H,31H)-pentone]
Sprague Dawley rats; dose 10 mM
  Ave. (Xray score): 0.25
  Results (bone, animals with bone of 4): Bone (1 of 4)
Sprague Dawley rats; dose 15 mM
  Ave. (Xray score): 0.5
  Results (bone, animals with bone of 4): Bone (1 of 4)
Sprague Dawley rats; dose 20 mM
  Ave. (Xray score): 0.75
  Results (bone, animals with bone of 4): Bone (1 of 4)
Sprague Dawley rats; dose 25 mM
  Ave. (Xray score): 2.75
  Results (bone, animals with bone of 4): Bone (3 of 4)
Sprague Dawley rats; dose 30 mM
  Ave. (Xray score): 3.5
  Results (bone, animals with bone of 4): Bone (3 of 4)
Sprague Dawley rats; dose 35 mM
  Ave. (Xray score): 4.25
  Results (bone, animals with bone of 4): Bone (4 of 4)
Sprague Dawley rats
  De novo bone formation: De novo bone formation is demonstrated locally

## C=C1/C(=C\C=C2/CCC[C@]3(C)[C@@H]([C@H](C)/C=C/[C@@H](O)C4CC4)CC[C@@H]23)C[C@@H](O)C[C@@H]1O [Calcipotriol, calcipotriol]
C2C12 cells [1]
  cell lifting from culture plates: caused cell lifting from culture plates

## CCC(C)n1ncn(-c2ccc(N3CCN(c4ccc(OCC5COC(Cn6cncn6)(c6ccc(Cl)cc6Cl)O5)cc4)CC3)cc2)c1=O (centres unmarked) [itraconazole, 4-(4-(4-(4((2((1H-1,2,4-triazol-1-yl)methyl)-2-(2,4-dichlorophenyl)-1,3-dioxolan-4-yl)methoxy)phenyl)piperazin-1-yl)phenyl)-1-(sec-butyl)-1H-1,2,4-triazol-5(4H)-one]
C2C12 cells [1]
  cell lifting from culture plates: caused cell lifting from culture plates

## CC[C@]1(O)C[C@H]2CN(CCc3c([nH]c4ccccc34)[C@@](C(=O)OC)(c3cc4c(cc3OC)N(C=O)[C@H]3[C@@](O)(C(=O)OC)[C@H](OC(C)=O)[C@]5(CC)C=CCN6CC[C@]43[C@@H]65)C2)C1 [Vincristine]
C2C12 cells [1]
  Fold-increase of BMP-induced ALP (over BMP alone control): 5.0

## COc1cc([C@@H]2c3cc4c(cc3[C@@H](O[C@@H]3O[C@@H]5CO[C@@H](c6cccs6)O[C@H]5[C@H](O)[C@H]3O)[C@H]3COC(=O)[C@H]23)OCO4)cc(OC)c1O [Teniposide]
C2C12 cells [1]
  Fold-increase of BMP-induced ALP (over BMP alone control): 7.0

## CCCCCCNC(=O)n1cc(F)c(=O)[nH]c1=O [carmofur, 5-fluoro-N-hexyl-2,4-dioxo-3,4-dihydropyrimidine-1(2H)-carboxamide]
C2C12 cells [1]
  cell lifting from culture plates: caused cell lifting from culture plates

## CCN(CC)CCOc1ccc(C(=C(Cl)c2ccccc2)c2ccccc2)cc1 [clomid]
C2C12 cells [1]
  cell lifting from culture plates: caused cell lifting from culture plates

## C[C@H]1[C@H](OC(=O)CCC(=O)O)O[C@@H]2O[C@@]3(C)CC[C@H]4[C@H](C)CC[C@@H]1[C@@]24OO3 [Artesunate, 4-oxo-4-(((3R,5aS,6R,8aS,9R,10R,12R,12aR)-3,6,9-trimethyldecahydro-3H-3,12-epoxy[1,2]dioxepino[4,3-i]isochromen-10-yl)oxy)butanoic acid]
C2C12 cells [2]
  cell lifting from culture plates: caused cell lifting from culture plates

## CC(=O)N1CCN(c2ccc(OC[C@H]3CO[C@](Cn4ccnc4)(c4ccc(Cl)cc4Cl)O3)cc2)CC1 [Ketoconazole, 1-(4-(4-(((2R,4S)-2-((1H-imidazol-1-yl)methyl)-2-(2,4-dichlorophenyl)-1,3-dioxolan-4-yl)methoxy)phenyl)piperazin-1-yl)ethanone]
C2C12 cells [2]
  cell lifting from culture plates: caused cell lifting from culture plates

## C#CC(c1ccccc1)(c1ccccc1)n1ccnc1 [1-(1,1-diphenylprop-2-yn-1-yl)-1H-imidazole]
C2C12 cells [1]
  Fold-increase of BMP-induced ALP (over BMP alone control): 7.0

## Nc1ncn([C@H]2C[C@H](O)[C@@H](CO)O2)c(=O)n1 [Decitabine]
C2C12 cells [1]
  Fold-increase of BMP-induced ALP (over BMP alone control): 6.0

## COc1cccc2c1C(=O)c1c(O)c3c(c(O)c1C2=O)C[C@@](O)(C(C)=O)C[C@@H]3O[C@H]1C[C@H](N)[C@H](O)[C@H](C)O1 [Daunorubicin hydrochloride]
C2C12 cells [1]
  cell lifting from culture plates: caused cell lifting from culture plates
  Fold-increase of BMP-induced ALP (over BMP alone control): 7.0

## O=C1c2c(O)ccc(O)c2C(=O)c2c(NCCNCCO)ccc(NCCNCCO)c21 [Mitoxantrone, mitoxantrone]
C2C12 cells [1]
  cell lifting from culture plates: caused cell lifting from culture plates
  Fold-increase of BMP-induced ALP (over BMP alone control): 4.0

## CC[C@H](C)C(=O)O[C@H]1C[C@@H](C)C=C2C=C[C@H](C)[C@H](CC[C@@H]3C[C@@H](O)CC(=O)O3)[C@H]21 [Lovastatin, lovastatin]
C2C12 cells [2]
  cell lifting from culture plates: caused cell lifting from culture plates

## CC[C@@]1(O)C(=O)OCc2c1cc1n(c2=O)Cc2cc3c(N)cccc3nc2-1 [9-aminocamptothecin]
C2C12 cells [1]
  Fold-increase of BMP-induced ALP (over BMP alone control): 10.0

## CCC1=C[C@@H]2CN(C1)Cc1c([nH]c3ccccc13)[C@@](C(=O)OC)(c1cc3c(cc1OC)N(C)[C@H]1[C@@](O)(C(=O)OC)[C@H](OC(C)=O)[C@]4(CC)C=CCN5CC[C@]31[C@@H]54)C2 [Vinorelbine tartrate]
C2C12 cells [1]
  cell lifting from culture plates: caused cell lifting from culture plates
  Fold-increase of BMP-induced ALP (over BMP alone control): 4.0

## CCCSc1ccc2nc(NC(=O)OC)[nH]c2c1 [Albendazole, albendazole]
C2C12 cells [1]
  cell lifting from culture plates: caused cell lifting from culture plates

## CO[C@@]12[C@H](COC(N)=O)C3=C(C(=O)C(C)=C(N)C3=O)N1C[C@@H]1N[C@@H]12 [Mitomycin C]
C2C12 cells [1]
  Fold-increase of BMP-induced ALP (over BMP alone control): 12.0

## CO[C@H]1C[C@@H]2CC[C@@H](C)[C@@](O)(O2)C(=O)C(=O)N2CCCC[C@H]2C(=O)O[C@H]([C@H](C)C[C@@H]2CC[C@@H](OCCO)[C@H](OC)C2)CC(=O)[C@H](C)/C=C(\C)[C@@H](O)[C@@H](OC)C(=O)[C@H](C)C[C@H](C)/C=C/C=C/C=C/1C [Everolimus, everolimus]
Sprague Dawley rats; dose 10 mM
  Ave. (Xray score): 0
  Results (bone, animals with bone of 4): No bone (0 of 4)
Sprague Dawley rats; dose 15 mM
  Ave. (Xray score): 2.5
  Results (bone, animals with bone of 4): Bone (3 of 4)
Sprague Dawley rats; dose 20 mM
  Ave. (Xray score): 3.75
  Results (bone, animals with bone of 4): Bone (4 of 4)
Sprague Dawley rats; dose 25 mM
  Ave. (Xray score): 4.75
  Results (bone, animals with bone of 4): Bone (4 of 4)
Sprague Dawley rats; dose 30 mM
  Ave. (Xray score): 3.75
  Results (bone, animals with bone of 4): Bone (3 of 4)
Sprague Dawley rats; dose 35 mM
  Ave. (Xray score): 4.75
  Results (bone, animals with bone of 4): Bone (4 of 4)
Sprague Dawley rats
  De novo bone formation: De novo bone formation is demonstrated locally

## Nc1ccn([C@@H]2O[C@H](CO)[C@@H](O)[C@@H]2O)c(=O)n1 [Cytarabine HCl]
C2C12 cells [1]
  Fold-increase of BMP-induced ALP (over BMP alone control): 2.0

## COc1cccc2c1C(=O)c1c(O)c3c(c(O)c1C2=O)C[C@@](O)(C(=O)CO)C[C@@H]3O[C@H]1C[C@H](N)[C@H](O)[C@H](C)O1 [Doxorubicin]
C2C12 cells [1]
  Fold-increase of BMP-induced ALP (over BMP alone control): 4.0

## CC(=O)O[C@@]12CO[C@@H]1C[C@H](O)[C@@]1(C)C(=O)[C@H](O)C3=C(C)[C@@H](OC(=O)[C@H](O)[C@@H](NC(=O)OC(C)(C)C)c4ccccc4)C[C@](O)([C@@H](OC(=O)c4ccccc4)[C@H]21)C3(C)C [Docetaxel, (2aR,4S,4aS,6R,9S,11R,12S,12aR,12b S)-12b-acetoxy-9-(((2R,3S)-3-((tert-butoxycarbonyl)amino)-2-hydroxy-3-phenylpropanoyl)oxy)-4,6,11-trihydroxy-4a,8,13,13-tetramethyl-5-oxo-2a,3,4,4a,5,6,9,10,11,12,12a,12b-dodecahydro-1H-7,11-methanocyclodeca[3,4]benzo[1,2-b]oxet-12-yl benzoate]
C2C12 cells [1]
  cell lifting from culture plates: caused cell lifting from culture plates

## C=C1/C(=C\C=C2/CCC[C@]3(C)[C@@H]([C@H](C)CCCC(C)(C)O)CC[C@@H]23)C[C@@H](O)C[C@@H]1O [calcitriol]
C2C12 cells [1]
  cell lifting from culture plates: caused cell lifting from culture plates

## Clc1ccc(COC(Cn2ccnc2)c2ccc(Cl)cc2Cl)cc1 (centres unmarked) [Econazole nitrate, econazole nitrate]
C2C12 cells [1]
  cell lifting from culture plates: caused cell lifting from culture plates

## Cc1ccc(Nc2nccc(N(C)c3ccc4c(C)n(C)nc4c3)n2)cc1S(N)(=O)=O [Pazopanib]
C2C12 cells [1]
  Fold-increase of BMP-induced ALP (over BMP alone control): 2.5

## CC[C@@]1(O)C(=O)OCc2c1cc1n(c2=O)Cc2cc3c(CN(C)C)c(O)ccc3nc2-1 [Topotecan]
C2C12 cells [1]
  Fold-increase of BMP-induced ALP (over BMP alone control): 4.0
